{"source": "paper PMC8753592", "about": "“Long-acting capsid inhibitor protects macaques from repeat SHIV challenges” (Nature, 2021)", "key": {"[1]": {"test_system": "SHIV-SF162P3", "assay": "microbe, parasite or virus in culture", "type": "cell-based, SHIV (in rhesus macaque, Macaca mulatta, PBMCs)", "procedure": "Freshly isolated PBMCs from three male rhesus macaque (M. mulatta) donors of Indian origin (HumanCells Biosciences) were cultured in RPMI-1640 cell culture medium (Life Technologies) supplemented with 10% heat-inactivated FBS (Hyclone), 2 mM glutamine and 100 U ml^−1 penicillin plus 100 μg ml^−1 streptomycin (complete RPMI). Before their use in the antiviral assays, rhesus PBMCs from three independent donors were pooled and activated at a density of 3 × 10^6 cells per ml for 72 h at 37 °C by the addition of 1 μg ml^–1 phytohemagglutinin (PHA, Sigma-Aldrich) and 50 U ml^−1 recombinant human interleukin-2 (IL-2) (Roche Diagnostics).\nPHA/IL-2-stimulated rhesus PBMCs were infected in bulk culture with SHIV-SF162P3 at a concentration of 130 pg of p27 equivalent per million PBMCs. The cells were maintained in suspension by gently rocking the cultures mixed with virus inoculum for 3 h at 37 °C. The cells were then pelleted by centrifugation at 500g for 5 min, washed twice with complete RPMI to remove any unadsorbed virus and seeded into 96-well plates at a cell density of 2 × 10^5 cells per well in 100 μl. […] The cultures were incubated in a 5% CO2 incubator at 37 °C for 7 days. Cell-free supernatants derived from the PBMC cultures were harvested 7 days after infection, the amount of SHIV present was quantified using an SIV p27 antigen-capture ELISA assay (5436, Advanced Bioscience Laboratories) performed according to the manufacturer’s protocol, and the data were acquired using SoftMax Pro 6.3.1 software (Molecular Devices)."}, "[2]": {"target": "CA monomer", "settings": "ref Link et al, Nature, 2020;[16]; read-out: Binding Affinity (KD), CA monomer; cited from earlier work"}, "[3]": {"test_system": "CA mutant N74D", "settings": "ref Link et al, Nature, 2020;[16]; cited from earlier work"}, "[4]": {"target": "CA precursor (Gag polyprotein)", "settings": "ref Link et al, Nature, 2020;[16]; read-out: Binding Affinity (KD), CA precursor (Gag polyprotein); cited from earlier work"}, "[5]": {"test_system": "CA mutant L56I", "settings": "ref Link et al, Nature, 2020;[16]; cited from earlier work"}, "[6]": {"settings": "ref Link et al, Nature, 2020;[16]; cited from earlier work"}, "[7]": {"settings": "ref Link et al, Nature, 2020;[16]; cited from earlier work", "remark": "listed apart in the source"}, "[8]": {"settings": "ref Link et al, Nature, 2020;[16], cited from earlier work"}, "[9]": {"test_system": "HIV-1", "settings": "cited from earlier work; for average LEN plasma concentration as multiple of human paEC95: 9 days after dose administration"}, "[10]": {"target": "CA pentamer", "settings": "ref Link et al, Nature, 2020;[16]; read-out: Binding Affinity (KD), CA pentamer; cited from earlier work"}, "[11]": {"test_system": "HIV capsid", "settings": "ref Link et al, Nature, 2020;[16]; cited from earlier work"}, "[12]": {"test_system": "HIV-1 isolates", "settings": "ref Link et al, Nature, 2020;[16]; read-out: EC50, human PBMCs, HIV-1 isolates; cited from earlier work"}, "[13]": {"settings": "in vivo, sc; cited from earlier work"}, "[14]": {"test_system": "CA mutant M66I", "settings": "ref Link et al, Nature, 2020;[16]; cited from earlier work"}, "[15]": {"target": "CA hexamer", "settings": "ref Link et al, Nature, 2020;[16]; read-out: Binding Affinity (KD), CA hexamer; cited from earlier work"}, "[16]": {"settings": "single experiments n1–n7, SIV p27 ELISA day 7, read-out: SHIV162P3-rhPBMC-EC50, individual experiments"}}, "note": "Where “and” joins values, the source holds several entries; their conditions need not be identical. Identical values can stand only once. Like-named read-outs stand apart in the source and are kept apart here.", "data": [{"smiles": "O=C(NCc1c(F)cc(F)cc1F)c1cn2c(c(O)c1=O)C(=O)N1[C@H]3CC[C@H](C3)O[C@@H]1C2", "note": "[BIC, reference compound]", "values": [{"measurement": "EC50", "setting": "[1]; mean of 7 assays, SIV p27 ELISA day 7 post-infection, read-out: EC50, rhesus PBMCs, SHIV-SF162P3", "result": 1.34, "unit": "nM"}, {"measurement": "EC50", "setting": "[1]; [16]", "result": "0.78 nM and 0.9 nM and 1.77 nM and 1.85 nM and 0.55 nM and 1.25 nM and 2.26 nM"}]}, {"smiles": "CC(C)(C#Cc1ccc(-c2ccc(Cl)c3c(NS(C)(=O)=O)nn(CC(F)(F)F)c23)c([C@H](Cc2cc(F)cc(F)c2)NC(=O)Cn2nc(C(F)(F)F)c3c2C(F)(F)[C@@H]2C[C@H]32)n1)S(C)(=O)=O", "note": "[LEN, Lenacapavir, reference compound]", "values": [{"measurement": "Kd", "setting": "[2]", "result": 2.5, "unit": "nM"}, {"measurement": "In vitro fold-resistance (CA mutant/wild-type), N74D", "setting": "[3]", "result": 22}, {"measurement": "Kd", "setting": "[4]", "result": 1.1, "unit": "nM"}, {"measurement": "EC50", "setting": "[1]; Simian immunodeficiency virus, PBMC, in Macaca mulatta, 168 h, read-out: EC50, rhesus PBMCs, SHIV-SF162P3, mean of 7 assays, SIV p27 ELISA day 7 post-infection", "result": 0.39, "unit": "nM"}, {"measurement": "EC50", "setting": "[1]; read-out: SHIV162P3-rhPBMC-EC50, individual experiments, single experiments n1–n7, SIV p27 ELISA day 7", "result": "0.37 nM and 0.26 nM and 0.49 nM and 0.27 nM and 0.69 nM and 0.43 nM"}, {"measurement": "EC50", "setting": "[1]; [16]", "result": 0.23, "unit": "nM"}, {"measurement": "In vitro fold-resistance (CA mutant/wild-type), L56I", "setting": "[5]", "result": 239}, {"measurement": "Predicted Hepatic Clearance, rate, primary human hepatocytes", "setting": "[6]", "result": 0.17, "unit": "mL/min/kg"}, {"measurement": "T1/2, human cryopreserved hepatocytes", "setting": "[7]", "result": 202, "unit": "h"}, {"measurement": "Kinetic solubility at pH 2.0", "setting": "[8]; pH 2.0", "result": "<1, <1 μM"}, {"measurement": "Kinetic solubility at pH 7.4", "setting": "[8]; pH 7.4", "result": "<1, <1 μM"}, {"measurement": "average LEN plasma concentration as multiple of human paEC95", "setting": "[9]; 20 mg dose", "result": 0.7, "unit": "times the human paEC95"}, {"measurement": "average LEN plasma concentration as multiple of human paEC95", "setting": "[9]; 50 mg dose", "result": 1.1, "unit": "times the human paEC95"}, {"measurement": "participants with capsid mutation Q67H detected", "setting": "[9]; long-acting LEN monotherapy, phase 1b", "result": "2 of 29"}, {"measurement": "maximum decline in HIV-1 RNA", "setting": "[9]; long-acting formulation, after 9 days of monotherapy", "result": 2.3, "unit": "log10"}, {"measurement": "Kd", "setting": "[10]", "result": 0.22, "unit": "nM"}, {"measurement": "Inhibits nuclear import (early-stage)", "setting": "[11]", "result": "Yes"}, {"measurement": "Inhibits proper capsid assembly (late-stage)", "setting": "[11]", "result": "Yes"}, {"measurement": "Inhibits virus production (late-stage)", "setting": "[11]", "result": "Yes"}, {"measurement": "EC50", "setting": "[12]", "result": 0.05, "unit": "nM"}, {"measurement": "duration of mean exposure of more than six times human paEC95", "setting": "[13]", "result": "at least 6 months"}, {"measurement": "In vitro fold-resistance (CA mutant/wild-type), M66I", "setting": "[14]", "result": ">3,200"}, {"measurement": "Kd", "setting": "[15]", "result": 0.24, "unit": "nM"}]}]}
